Measurements taken from ChEMBL document CHEMBL1201862, “PubChem BioAssay data set” (2004).
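Step 1: Grow cells in 96-well plates. Step 2: Expose to compound for 48 hours at 5 concentrations. Step 3: Interpolate endpoints linearly; if unreached, use highest concentration. At the GI50, growth is halved.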 Activity calls are given as the source filed them. Cut-off read from the data, not from the text of the source: active = GI50 up to about 1.1 µM and inactive = higher.

Tests used:
Assay in all cases: DTP human tumour cell line panel, 48 h
PC-3 = test system: PC-3
MDA-MB-231 = test system: MDA-MB-231
MDA-MB-435 = test system: MDA-MB-435
MDA-N = test system: MDA-N
TK-10 = test system: TK-10
786-0 = test system: 786-0
ACHN = test system: ACHN

| SMILES | GI50 (PC-3) | GI50 (MDA-MB-231) | GI50 (MDA-MB-435) | GI50 (MDA-N) | GI50 (TK-10) | GI50 (786-0) | GI50 (ACHN) |
| --- | --- | --- | --- | --- | --- | --- | --- |
| COC1/C=C/C=C(/C)Cc2cc(O)c(Cl)c(c2)N(C)C(=O)CC(OC(=O)C(C)C)C2(C)OC2C(C)C2CC1(O)NC(=O)O2 (stereo not drawn) | < 0.01 µM (active) | < 0.01 µM (active) | < 0.01 µM (active) | < 0.01 µM (active) |  |  |  |
| Cc1ccc(C(=O)N/N=C(\N=N\c2ccc([N+](=O)[O-])cc2)c2ccc(N(CCC#N)CCC#N)cc2C)cc1 | 50.1 µM (inactive) | > 100 µM (inactive) | 67.8 µM (inactive) | 78.9 µM (inactive) | > 100 µM (inactive) | 73.5 µM (inactive) | > 100 µM (inactive) |
| O=C1OCc2cccc3c2-c2c1cccc2C(=O)OC3 |  |  |  |  | > 100 µM (inactive) |  |  |
| BrC1=CN2C[n+]3cc(Br)c4ccccc4c3N=C2c2ccccc21 | 13.6 µM (inactive) | 15 µM (inactive) | 6.18 µM (inactive) | 6.81 µM (inactive) | 26.8 µM (inactive) |  | 14.8 µM (inactive) |
| CO/N=C(\C)c1ccc(Nc2nc3ccccc3c3occc23)cc1 | 16.2 µM (inactive) | 12.7 µM (inactive) | 16.4 µM (inactive) | 14.6 µM (inactive) | 12.4 µM (inactive) | 14.2 µM (inactive) | 14 µM (inactive) |
| COc1ccccc1-c1cc(O)c2c(C)ccnc2n1 |  | 26.7 µM (inactive) |  |  | > 100 µM (inactive) |  | 28.4 µM (inactive) |
